Entries after “also recorded” stand apart in the source; their conditions may differ. Like-named read-outs stand apart in the source and are kept apart here.
How the values were obtained:
[1] = Protocol: 18:1 DEPX was prepared as liposomes so that 500 μg of lipid was delivered in a 50 μL volume. 6-week old female BALB/C mice were purchased from Jackson laboratories and divided into groups of 5. Each group was inoculated with 500 μg of 18:1 DEPX by intranasal inoculation. Groups of 5 mice were sacrificed and lavaged at the following time points: 0 hours, 3 hours, 6 hours, 18 hours and 24 hours. Lipids were extracted from mice BALF by Bligh-Dyer (“A rapid method of total lipid extraction and purification.,” Can. J. Biochem. Physiol., vol. 37, no. 8, pp. 911-7, August 1959), and quantified by phosphorus analysis. 150 nmol of lipid extracted from each mouse was separated by lipid class utilizing the Touchstone solvent system (refer to methods) and thin layer chromatography. 0.1% ANSA and UV light was used to visualize lipids from the thin layer chromatogram. Individual xylitol lipid bands were cut out from the silica and quantified by phosphorus analysis.
To determine how quickly 18:1 DEPX turns over in the mouse lung, female BALB/C mice that were 6-8 weeks old were inoculated with 500 μg of lipid by intranasal delivery in a 50 μL volume. Mice were sacrificed at time periods of, 0 hours, 3 hours, 6 hours, 18 hours and 24 hours following lipid delivery and bronchoalveolar lavage fluid (BALF) was collected. Lipids were extracted from BALF by the Bligh-Dyer method and total lipid extracts were quantified by phosphorus analysis (G. Rouser, et al., “Quantitative analysis of phospholipids by thin-layer chromatography and phosphorus analysis of spots.,” Lipids, vol. 1, no. 1, pp. 85-6, January 1966). To separate the various lipid classes present in BALF, thin layer chromatography on a Merck Silica 60 glass plate with a touchstone solvent system was utilized. The silica plate was scored in lanes according to number of samples, 150 nmol of total lipid was spotted onto each lane and solvent was developed for 90 minutes. The plate was air dried and sprayed with 0.1% ANSA-water then exposed to UV light to reveal migration of lipids on the plate. The spots corresponding to xylitol lipids were cut out and quantified by phosphorous analysis.
Because toxicity of the synthetic phospholipid, 18:1 DEPX, is unknown lower levels of lipid were delivered to mice to determine if the diether lipid persists in the mouse lung after 24 hours. The previous experiment was repeated with 250 μg, 150 μg and 75 μg 18:1 DEPX delivered to mice. 250 μg was used as a starting point for mice sacrificed at 0 hours following lipid delivery. Subsequently groups of mice given 250 μg, 150 μg and 75 μg of 18:1 DEPX were sacrificed 24 hours following intranasal delivery of lipid. Mouse lungs were lavaged 2 times with 1 mL PBS. Total lipids were extracted by the Bligh-Dyer method from BALF and separated on a Merck Silica 60 glass plate using a touchstone solvent system for separation of lipids by headgroup. Xylitol lipid spots were excised from the silica and quantified by phosphorus assay.

RSV = experiment: 18:1 DEPX interference with RSV infection in vivo (BALB/c mice); set-up: species or system mouse
Protocol: Six-week-old female BALB/c mice were obtained from Jackson Laboratory. Mice were anesthetized with isoflurane and through intranasal inoculation a 50 μL volume of PBS control, 18:1 DEPX lipid alone, 18:1 DEPX+RSV or RSV only was delivered to mice. Mice were infected with 1×10^7 pfu/mL RSV. 18:1 DEPX liposomes were delivered to mice at a final amount of 100 μg. For lipid antagonism, RSV and 18:1 DEPX were mixed together in PBS prior to inoculation. Five days following initial infection, mice were euthanized by asphyxiation with carbon dioxide following prescribed guidelines by the IACUC. Next, mice were dissected to expose the trachea where a small cut was made to insert a luer stub. The lungs were then lavaged with 1 mL of saline. The chest cavity was opened and the lungs perfused with PBS and then removed. The left lung was homogenized in 1 mL of serum-free DMEM, the homogenates were centrifuged at 3800 rcf for 15 minutes at 4° C. and supernatant was used for quantitative plaque assay analysis. Lower right lungs were fixed overnight in 10% buffered formalin, then dehydrated and paraffin-embedded. Lungs were then sliced and stained with Hematoxylin-Eosin (H&E) for microscopy pictures and histopathological scoring. Total cell counts were determined from BALF and cell types were assessed by cytospin. IFN-γ was quantified by ELISA from the cell-free supernatants of BALF. The upper right lung was homogenized, RNA was extracted, converted to cDNA and RSV replication was determined by quantitative PCR of the F protein.
Female BALB/C mice were obtained from Jackson Laboratories at 6 weeks of age. The experiment consisted of four groups, a PBS control, 18:1 DEPX liposomes alone, 18:1 DEPX liposomes+RSV and RSV alone. Mice were inoculated with RSV at 1×10^7 pfu/mL. 100 μg 18:1 DEPX was the dose tested for protective effects in the mouse lung. Each mouse group underwent intranasal inoculation for delivery of experimental conditions in a final volume of 50 μL. Mice were monitored daily and body weight was recorded. At the height of RSV infection on day 5, the mice were euthanized. Bronchoalveolar lavage fluid (BALF) was collected, the chest cavity was opened and the lungs removed. The left lobe of the lungs was homogenized in serum-free DMEM, centrifuged at 3800 rcf for 15 minutes at 0° C. and the supernatant collected for quantitative plaque assay described in the previous chapter. The lower right lobe of the lung was fixed overnight in 10% buffered formalin and then processed by paraffin embedding, slicing and fixing of the lung to a microscope slide and H&E staining. The upper right lobe of the lung was homogenized, RNA was extracted and converted to cDNA and then quantitative real-time PCR was used to determine RSV replication by quantification of the F protein. Cells within BALF were quantified and assessed for cell populations by cytospin. BALF supernatant was stored and subsequently used for IFNγ quantification.
On day 5 following RSV infection mice were sacrificed by carbon dioxide asphyxiation according to IACUC protocol. Mice were dissected to expose the trachea where a small cut was made for the insertion of a leur stub and the lungs were lavaged with 1 mL of saline. A 20 μL aliquot was obtained from BALF collected and cellular infiltration into the lungs was quantified using a hemocytometer. The remaining lavage fluid was centrifuged at 500×g for 5 minutes, supernatant was collected and cells were resuspended in PBS for cytospin. In studies shown in FIG. 11, mice were challenged with either saline (CNTL), or 10^7 virus (RSV), or virus plus 18:1 DEPX (18:1 DEPX+RSV), or lipid alone (18;1 DEPX). The mice received all agents in a volume of 50 μl applied intranasally. On day 6 the mice were euthanized and the lungs were lavaged with saline. The cells in the lavage were recovered by centrifugation and quantified by counting using a hemocytometer. In RSV infected mice cell numbers were ˜120×10^4. […]

[2] = 18:1 DEPX alone, 100 μg intranasal

Compound: CCCCCCCCC=CCCCCCCCCOCC(COP(=O)(O)OCC(O)C(O)C(O)CO)OCCCCCCCCC=CCCCCCCCC (mixture of isomers) [18:1 DEPX, sn-1-O-octadecenyl, sn-2-O-octadecenyl sn-3 glycerol phosphoxylitol]
- xylitol lipid recovered from BALF ([1]; 75 μg intranasal, 24 hours): 10 µg
- xylitol lipid recovered from BALF ([1]; 150 μg intranasal, 24 hours): 15 µg
- xylitol lipid recovered from BALF ([1]; 250 μg intranasal, 0 hours): Around 40 μg
- xylitol lipid recovered from BALF ([1]; 250 μg intranasal, 24 hours): around 20 μg
- 18:1 DEPX detected in recovered lavage ([1]; 500 μg intranasal, 24 hours): about 20 nmol
- 18:1 DEPX in 150 nmol of total BALF lipid loaded ([1]; 500 μg intranasal, time zero): approximately 42 nmol
- half-life in the mouse lung ([1]; intranasal): around 24 hours
- starting material recovered after 24 hours ([1]; mice): 50%
- daily body weight, lipid alone vs control mice (RSV; [2]): no difference in daily body weight
- number of cells in lavage, lipid alone vs control (RSV; [2]): no difference in number of cells
- IFNγ in BALF compared to RSV alone (RSV; 18:1 DEPX+RSV mice): reduced; also recorded: significantly lower
- cell numbers in lavage (RSV; 18:1 DEPX+RSV mice, 1 mL BALF, FIG. 11): ~20×10^4
- IFNγ in BALF (RSV; 18:1 DEPX+RSV mice, day 5): Around 1 ng/mL
- cellular infiltration into the lungs (BALF) (RSV; 18:1 DEPX+RSV vs RSV alone): suppresses an overabundance of cellular infiltration; also recorded: decreased number of inflammatory cellular infiltrates; also recorded: suppresses influx of inflammatory cells; also recorded: reduced cellular infiltrates; also recorded: significantly lower amounts of cellular infiltrates
- reduction of viral plaque number (RSV; 18:1 DEPX+RSV vs RSV alone): 50%
- lung histopathology (RSV; 18:1 DEPX+RSV vs RSV alone, H&E): appeared less affected by the virus
- reduction in RSV expression (qPCR) (RSV; first viral challenge experiment): 2.6 fold
- reduction of RSV expression by a factor of (qPCR) (RSV; latter two experiments): 6.2
- viral load / RSV infection in lung compared to RSV mice (RSV; plaque assay and qPCR): reduces viral copy number; also recorded: inhibited RSV infection; also recorded: reduced viral load

— patent US12472193B2, “Methods and compositions for treating and preventing respiratory related diseases and conditions with xylitol-headgroup lipid analogs” (National Jewish Health, priority 2017, dated 2025)
